This note sets out measurements from patent US20230108906A1, “SUBSTITUTED BICYCLIC AND TRICYCLIC UREAS AND AMIDES, ANALOGUES THEREOF, AND METHODS USING SAME” (Arbutus Biopharma Corporation, priority 2019, published 2023).

One test relates to HBV rcDNA in HepDE19 cells. Nature of the test: HepDE19 assay with bDNA quantitation of HBV rcDNA. The note with it: Hepatitis B virus, HepDE19, 168 h, inhibition of rcDNA formation in HepDE19 cells (HepG2 derived), Tet-free medium, 7 day incubation, Quantigene 2.0 bDNA readout, top concentration 25 μM; read-out: DE-19bDNA EC50. In kind it is cell-based, hepatitis B virus (HBV). As to the method:
HepDE19 Assay with bDNA Quantitation of HBV rcDNA:
HepDE19 cell culture system is a HepG2 (human hepatocarcinoma) derived cell line that supports HBV DNA replication and cccDNA formation in a tetracycline (Tet)-regulated manner and produces HBV rcDNA and a detectable reporter molecule dependent on the production and maintenance of cccDNA (Guo, et al., 2007, J. Virol. 81:12472-12484).
HepDE19 (50,000 cells/well) were plated in 96-well collagen-coated tissue-culture treated microtiter plates in DMEM/F12 medium supplemented with 10% fetal bovine serum, 1% penicillin-streptomycin and 1 μg/mL tetracycline and incubated in a humidified incubator at 37° C. and 5% CO2 overnight. Next day, the cells were switched to fresh medium without tetracycline and incubated for 4 hours at 37° C. and 5% CO2. The cells were treated with fresh Tet-free medium with compounds at concentrations starting at 25 μM and a serial, […], 8-point, titration series in duplicate. The final DMSO concentration in the assay was 0.5%. The plates were incubated for 7 days in a humidified incubator at 37° C. and 5% CO2. Following a 7 day-incubation, the level of rcDNA present in the inhibitor-treated wells was measured using a Quantigene 2.0 bDNA assay kit (Affymetrix, Santa Clara, Calif.) with HBV specific custom probe set and manufacturers instructions. Concurrently, the effect of compounds on cell viability was assessed using replicate plates, plated at a density of 5,000 cells/well and incubated for 4 days, to determine the ATP content as a measure of cell viability using the cell-titer glo reagent (CTG; Promega Corporation, Madison, Wis.) as per manufacturer's instructions. The plates were read using a Victor luminescence plate reader (PerkinElmer Model 1420 Multilabel counter) and the relative luminescence units (RLU) data generated from each well was calculated as % inhibition of the untreated control wells and analyzed using XL-Fit module in Microsoft Excel to determine EC50 and EC90 (bDNA) and CC50 (CTG) values using a 4-parameter curve fitting algorithm.
Representative compounds of the disclosure were tested for their abilities to inhibit formation of relaxed circular DNA (rcDNA) in a HepDE19 assay, as described elsewhere herein.
Broadly, the EC50 is the concentration needed to bring the measured effect to its halfway point. `CN(C(=O)NC1(C(F)(F)F)CC1)C1CCCc2[nH]c(=O)c3cc(F)c(F)cc3c21` (stereo not drawn) [Compound 144, 1-(8,9-Difluoro-6-oxo-1,2,3,4,5,6-hexahydrophenanthridin-1-yl)-1-methyl-3-(1-(trifluoromethyl)cyclopropyl)urea]: the 50% effective concentration (EC50) stood at 20 µM.
Take `CN(C(=O)Nc1ccc(F)c(Cl)c1)[C@@H]1COCc2nc(OCCN)c3cc(F)c(F)cc3c21` [Compound 258, (S)-1-(6-(2-Aminoethoxy)-8,9-difluoro-1,4-dihydro-2H-pyrano[3,4-c]isoquinolin-1-yl)-3-(3-chloro-4-fluorophenyl)-1-methylurea]: the EC50 worked out at 0.065 µM.
As to `CCN(C(=O)Nc1ccc(F)c(Cl)c1)[C@@H]1COCc2[nH]c(=O)c3cc(F)ccc3c21` (single isomer, unassigned) [Compound 87], the EC50 is 0.01 µM.
Turning to `COc1nc2c(c3cc(F)c(F)cc13)[C@H](N(C)C(=O)Nc1ccc(F)c(C(F)F)c1)COC2` [Compound 234, (S)-1-(8,9-Difluoro-6-methoxy-1,4-dihydro-2H-pyrano[3,4-c]isoquinolin-1-yl)-3-(3-(difluoromethyl)-4-fluorophenyl)-1-methylurea], the concentration for a half-maximal effect (EC50) came to 0.05 µM.

The test is the same for the next values; noted with them: inhibition of rcDNA formation in HepDE19 cells (HepG2 derived), Tet-free medium, 7 day incubation, Quantigene 2.0 bDNA readout, top concentration 25 μM; read-out: DE-19bDNA EC50.
In the case of `CN(C(=O)Nc1ccc(F)c(F)c1)C1CCCc2[nH]c(=O)c3c(c21)CCCC3` (single isomer, unassigned) [Compound 49, 3-(3,4-Difluorophenyl)-1-methyl-1-(6-oxo-1,2,3,4,5,6,7,8,9,10-decahydrophenanthridin-1-yl)urea], the EC50 was determined as 0.16 µM.
As to `CN(C(=O)Nc1ccc(F)c(C#N)c1)C1C[S+]([O-])Cc2[nH]c(=O)c3cc(F)c(F)cc3c21` (single isomer, unassigned) [Compound 211, 3-(3-Cyano-4-fluorophenyl)-1-(8,9-difluoro-3-oxido-6-oxo-1,4,5,6-tetrahydro-2H-thiopyrano[3,4-c]isoquinolin-1-yl)-1-methylurea], the EC50 is 5.5 µM.
Turning to `CN(C(=O)Nc1ccc(F)c(Cl)c1)C1CN(CCO)Cc2[nH]c(=O)c3cc(F)ccc3c21` (single isomer, unassigned) [Compound 169, 3-(3-Chloro-4-fluorophenyl)-1-(8-fluoro-3-(2-hydroxyethyl)-6-oxo-1,2,3,4,5,6-hexahydrobenzo[c][1,7]naphthyridin-1-yl)-1-methylurea], the concentration for a half-maximal effect (EC50) was 6.6 µM.
Take `CN(C(=O)Nc1ccc(F)c(F)c1)C1COCc2[nH]c(=O)c3cc(F)c(F)cc3c21` (single isomer, unassigned) [Compound 117, 1-(8,9-Difluoro-6-oxo-1,4,5,6-tetrahydro-2H-pyrano[3,4-c]isoquinolin-1-yl)-3-(3,4-difluorophenyl)-1-methylurea]: the EC50 stood at 2.7 µM.
The same measure, in the same setting: the same measure for `CN(C(=O)Nc1ccc(F)c(F)c1)C1CNCc2[nH]c(=O)c3cc(F)c(F)cc3c21` (single isomer, unassigned) [Compound 191, 1-(8,9-Difluoro-6-oxo-1,2,3,4,5,6-hexahydrobenzo[c][1,7]naphthyridin-1-yl)-3-(3,4-difluorophenyl)-1-methylurea]: 3 µM; for `CCN(C(=O)Nc1ccc(F)c(F)c1)C1CCCc2[nH]c(=O)c3c(c21)CCCC3` (single isomer, unassigned) [Compound 51, 3-(3,4-Difluorophenyl)-1-ethyl-1-(6-oxo-1,2,3,4,5,6,7,8,9,10-decahydrophenanthridin-1-yl)urea]: 0.1 µM.
For the molecule `CN(C(=O)Nc1ccc(F)c(F)c1)C1CCCc2[nH]c(=O)c3c(c21)CCOC3` (single isomer, unassigned) [Compound 62, 3-(3,4-Difluorophenyl)-1-methyl-1-(5-oxo-1,4,5,6,7,8,9,10-octahydro-2H-pyrano[3,4-c]quinolin-10-yl)urea], the concentration giving a half-maximal response (EC50) was 1.3 µM.
For the molecule `CN1Cc2[nH]c(=O)c3cc(F)ccc3c2C(N(C)C(=O)Nc2ccc(F)c(Cl)c2)C1` (single isomer, unassigned) [Compound 155, 3-(3-Chloro-4-fluorophenyl)-1-(8-fluoro-3-methyl-6-oxo-1,2,3,4,5,6-hexahydrobenzo[c][1,7]naphthyridin-1-yl)-1-methylurea], the concentration giving a half-maximal response (EC50) was determined as 9.2 µM.
